Measured values as given in paper PMC4349960, “[^18F]FE@SUPPY: a suitable PET tracer for the adenosine A3 receptor? An in vivo study in rodents” (European Journal of Nuclear Medicine and Molecular Imaging, 2015).
“And” between values parts separate entries of the source, which are not always exact repeats. Identical values can stand only once.

Experiments:
[1] = test system: P-gp; assay: Small-animal PET in rats: efflux (P-gp) inhibition; format: in vivo
Source text: A microPET Focus220 scanner (Siemens, Medical Solutions) was used for the experiments. […] The resolution of the reconstructed images (filtered back projection) was 1.3 mm (full-width at half-maximum) in the central field of view and remained under 2 mm within the central 5 cm diameter field of view [15]. For PET imaging two groups of animals (rats and xenografted mice) were investigated. Rats were divided into four groups.
Anaesthetized animals were positioned in the imaging chamber of the microPET scanner, which was kept at 38 °C throughout the experiment. […]
For all PET scans (rats and xenografted mice), list mode data were acquired with an energy window of 350 – 750 keV (rats) or 250 – 750 keV (mice) and a 6-ns timing window. Before each PET scan, a transmission scan using a ^57Co point source was recorded over 10 min. […] A calibration factor for converting units of microPET images into absolute radioactivity concentration units was first generated by imaging a phantom filled with a known concentration of [^18F]FDG.
Rat brains were manually outlined on multiple planes of the PET summation images using the image analysis software PMOD 3.1 (Pmod Ltd, Zürich, Switzerland) or Amide [18]. […] To facilitate comparison of TACs of different animals, radioactivity concentrations were normalized to dose and weight and expressed as standardized uptake value (SUV, %ID/cm^3 or %ID/g). […]

[2] = biological target: T1, A3R (Rattus norvegicus, UniProt P28647); assay: Small-animal PET in rats: baseline and A3R blocking scans; format: in vivo; conditions: baseline PET, 60 min
T1 construct: Adult male Sprague-Dawley rats; from tissue; host or cells: living Sprague-Dawley rats, brain volume of interest in PET
T1 sequence (P28647 1-320): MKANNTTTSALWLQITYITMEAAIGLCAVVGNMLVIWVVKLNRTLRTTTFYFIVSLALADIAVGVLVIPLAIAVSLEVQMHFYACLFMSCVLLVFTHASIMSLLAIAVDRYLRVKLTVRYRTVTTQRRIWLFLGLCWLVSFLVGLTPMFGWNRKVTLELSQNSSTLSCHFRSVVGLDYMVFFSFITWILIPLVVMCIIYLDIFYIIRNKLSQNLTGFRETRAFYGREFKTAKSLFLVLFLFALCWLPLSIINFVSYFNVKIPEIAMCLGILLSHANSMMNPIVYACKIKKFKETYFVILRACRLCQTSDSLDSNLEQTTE
Source text: A microPET Focus220 scanner (Siemens, Medical Solutions) was used for the experiments. It has 168 detector modules providing a 7.6-cm axial and 22-cm transaxial field of view. The resolution of the reconstructed images (filtered back projection) was 1.3 mm (full-width at half-maximum) in the central field of view and remained under 2 mm within the central 5 cm diameter field of view. For PET imaging two groups of animals (rats and xenografted mice) were investigated. Rats were divided into four groups. The first group received vehicle (dimethyl sulphoxide, DMSO) intravenously via a lateral tail vein 30 min prior to radiotracer administration (three animals, 14.3 – 70.1 MBq, 0.2604 ± 0.06 μg). The second group received MRS1523 – a selective A3R antagonist – at a dose of 2 mg/kg body weight (dissolved in DMSO, 4 mg/mL) intravenously via a tail vein 30 min prior to radiotracer administration (three animals, 18.8 – 59.1 MBq, 0.3443 ± 0.05 μg). The third group received unlabelled title compound FE@SUPPY (dissolved in DMSO, 4 mg/mL) at a dose of 2 mg/kg 30 min before tracer administration (three animals, 9.7 – 16.1 MBq, 0.3926 ± 0.04 μg). In the final study group, the effect of P-glycoprotein inhibition was assessed by intravenous administration of 15 mg/kg TQD (freshly dissolved on each experimental day in 2.5 % aqueous dextrose solution and injected intravenously via a tail vein at a volume of 3 mL/kg over 1 min) 60 min prior to tracer administration (three animals, 13.9 – 26.8 MBq, 0.7451 ± 0.11 μg).
Anaesthetized animals were positioned in the imaging chamber of the microPET scanner, which was kept at 38 °C throughout the experiment. A stereotactic holder attached to the bed, consisting of ear plugs and a tooth bar, was used to fix the animal's head to ensure a reproducible position during the PET studies. [^18F]FE@SUPPY (27.91 ± 13.82 MBq) dissolved in 0.48 ± 0.22 mL phosphate-buffered saline (pH 7.4) was administered as a bolus via a tail vein. Dynamic PET imaging was performed over 60 min in all animals. At the end of the PET scan the animals were killed, a terminal blood sample was collected and whole brains were removed for testing of metabolite stability.
For all PET scans (rats and xenografted mice), list mode data were acquired with an energy window of 350 – 750 keV (rats) or 250 – 750 keV (mice) and a 6-ns timing window. Before each PET scan, a transmission scan using a ^57Co point source was recorded over 10 min. The PET data from the 60-min dynamic scans were sorted into three-dimensional sinograms according to the following frame sequence: 6 × 20 s, 5 × 60 s, 4 × 120 s, 3 × 300 s and 3 × 600 s. For the 90-min scans (in the xenografted mice) the following frame sequence was used: 8 × 5 s, 2 × 10 s, 2 × 30 s, 3 × 60 s, 2 × 150 s, 2 × 300 s, 4 × 600 s and 2 × 900 s. PET images were reconstructed by Fourier rebinning followed by filtered back projection with a ramp filter. The resulting voxel size was 0.6 × 0.6 × 0.8 mm for rats or 0.4 × 0.4 × 0.8 mm for mice. The standard data correction protocol (normalization, attenuation and decay correction) was applied to the data. A calibration factor for converting units of microPET images into absolute radioactivity concentration units was first generated by imaging a phantom filled with a known concentration of [^18F]FDG.
Rat brains were manually outlined on multiple planes of the PET summation images using the image analysis software PMOD 3.1 (Pmod Ltd, Zürich, Switzerland) or Amide. Volumes of interest in the brain or solid tissue mass (xenografts) were transferred to the PET images of the individual time frames and time–activity curves (TACs) expressed in units of kilobecquerels per millilitre were calculated. To facilitate comparison of TACs of different animals, radioactivity concentrations were normalized to dose and weight and expressed as standardized uptake value (SUV, %ID/cm^3 or %ID/g). […]

[3] = Ex vivo stability/metabolism in rat plasma and brain after pretreatment; set-up: species or system rats; conditions: for Brain to blood uptake ratio / %ID/g at 60 min, Blood (plasma) / %ID/g at 60 min, Brain / Unchanged [^18F]FE@SUPPY at 60 min, Blood (plasma) / Unchanged [^18F]FE@SUPPY at 60 min, Brain: rats
Protocol: To determine the influence of the four treatments (vehicle, MRS1523, FE@SUPPY, TQD) on uptake of [^18F]FE@SUPPY, stability was assessed in plasma and brain 60 min after tracer injection. Final blood samples (3 mL) were collected in heparin-buffered tubes, rat brains were washed with ice-cold water and homogenized in 0.9 % aqueous NaCl solution (1 mL) using an IKA T10 basic Ultra-turrax (IKA Laboratory Equipment, Staufen, Germany). […] Sample clean-up was performed by vortexing plasma with the equivalent amount of methanol/acetonitrile (9:1) for 1 min and by subsequent ultracentrifugation (10,000 rpm, 5 min) to remove precipitated proteins. The supernatants obtained were analysed by radio-HPLC (Agilent, Boeblingen, Germany) equipped with a series 1100 autosampler, a series 1200 quaternary pump, a series 1200 diode array detector and a lead-shielded BGO radiodetector. A Chromolith® Performance RP-18e (100 × 4.6 mm, 5 μm) column with a Chromolith® Performance RP-18e (4 x4 mm, 5 μm) precolumn was eluted at a flow rate of 2 mL/min using a mobile phase consisting of 60 % acetonitrile and 40 % water/acetic acid 97.5:2.5 and 32 mM ammonium acetate, pH 3.5. UV detection was performed at a wavelength of 254 nm. The retention time of [^18F]FE@SUPPY was 4.6 – 5.9 min (UV detection and radiodetection).

[4] = pretreatment unlabelled FE@SUPPY

peak brain activity ([1]; TQD-treated group (15 mg/kg, 60 min before tracer)): 1.53 ± 0.01 SUV | peak brain activity ([1]; untreated group): 1.56 ± 0.22 SUV | tracer uptake in fat-rich regions (harderian and lacrimal glands) [2]: high uptake | tracer uptake in the brain [2]: low uptake | Ex vivo metabolites in rats (where found) ([3]; 60 min after tracer injection): Blood and brain | Brain to blood uptake ratio ([3]; baseline): 5.2 | %ID/g at 60 min, Brain ([3]; pretreatment DMSO): 0.1132 ± 0.0002 %ID/g | Unchanged [^18F]FE@SUPPY at 60 min, Blood (plasma) ([3]; pretreatment DMSO): 25.8 ± 5.3% and 25.81 ± 5.3% | Unchanged [^18F]FE@SUPPY at 60 min, Brain ([3]; pretreatment DMSO): 43.7 ± 9.5% | Brain to blood uptake ratio ([3]; pretreatment FE@SUPPY): 7.9 | %ID/g at 60 min, Blood (plasma) ([3]; pretreatment MRS1523): 0.0145 ± 0.002 %ID/g | %ID/g at 60 min, Brain ([3]; pretreatment MRS1523): 0.0918 ± 0.0001 %ID/g | Unchanged [^18F]FE@SUPPY at 60 min, Blood (plasma) ([3]; pretreatment MRS1523): 26.5 ± 1.4% and 26.54 ± 1.4% | Unchanged [^18F]FE@SUPPY at 60 min, Brain ([3]; pretreatment MRS1523): 37.8 ± 4.3% and 37.75 ± 4.3% | %ID/g at 60 min, Blood (plasma) ([3]; pretreatment TQD): 0.0214 ± 0.004 %ID/g | %ID/g at 60 min, Brain ([3]; pretreatment TQD): 0.1507 ± 0.0005 %ID/g | Unchanged [^18F]FE@SUPPY at 60 min, Blood (plasma) ([3]; pretreatment TQD): 39.9 ± 4.7% and 39.87 ± 4.7% | Unchanged [^18F]FE@SUPPY at 60 min, Brain ([3]; pretreatment TQD): 55.2 ± 7.0% and 55.21 ± 7.0% | %ID/g at 60 min, Blood (plasma) [3, 4]: 0.0160 ± 0.002 %ID/g | %ID/g at 60 min, Brain [3, 4]: 0.1273 ± 0.0000 %ID/g | Unchanged [^18F]FE@SUPPY at 60 min, Blood (plasma) [3, 4]: 32.4 ± 5.6% | Unchanged [^18F]FE@SUPPY at 60 min, Brain [3, 4]: 49.6 ± 9.4% and 49.64 ± 9.4%
Compound: CCSC(=O)c1c(CC)nc(-c2ccccc2)c(C(=O)OCC[18F])c1CC [[^18F]FE@SUPPY, 5-(2-[^18F]fluoroethyl)-2,4-diethyl-3-(ethylsulfanylcarbonyl)-6-phenylpyridine-5-carboxylate]
%ID/g at 60 min, Blood (plasma) ([3]; pretreatment DMSO): 0.022 ± 0.003 %ID/g and 0.0216 ± 0.003 %ID/g
